Experimental data: US20140155410A1 (GlaxoSmithKline LLC, priority 2008, published 2014)

Target: T1, Full length Human FAK (Flag-His-TEV-FAK1) (Homo sapiens, UniProt Q05397)
T1 construct: Full length Human FAK was expressed using baculovirus in Sf9 cells; made in house; host or cells: baculovirus in Sf9 cells
Assay: Biochemical assay for FAK activity, Assay 2: LANCE Ultra ULight peptide phosphorylation, 665 nm/615 nm ratio
Conditions: Flag-His-TEV-FAK1, 10 μM ATP, 30 min pre-incubation
Description: Flag-His-TEV-FAK1 was prepared in-house. Full length Human FAK was expressed using baculovirus in Sf9 cells with N-terminal FLAG-6×His tags followed by a TEV cleavage site (FLAG-6×His-TEV-huFAK). […] To measure inhibitors of FAK, compounds were first prepared as a 100× stock in 100% DMSO. […] After incubating for 120 minutes at room temperature, the reaction is quenched by adding 5 uL of 20 mM EDTA and 5nMEu-Anti-pTyr antibody in 1× LANCE detection buffer.

T1 sequence (Q05397 whole entry): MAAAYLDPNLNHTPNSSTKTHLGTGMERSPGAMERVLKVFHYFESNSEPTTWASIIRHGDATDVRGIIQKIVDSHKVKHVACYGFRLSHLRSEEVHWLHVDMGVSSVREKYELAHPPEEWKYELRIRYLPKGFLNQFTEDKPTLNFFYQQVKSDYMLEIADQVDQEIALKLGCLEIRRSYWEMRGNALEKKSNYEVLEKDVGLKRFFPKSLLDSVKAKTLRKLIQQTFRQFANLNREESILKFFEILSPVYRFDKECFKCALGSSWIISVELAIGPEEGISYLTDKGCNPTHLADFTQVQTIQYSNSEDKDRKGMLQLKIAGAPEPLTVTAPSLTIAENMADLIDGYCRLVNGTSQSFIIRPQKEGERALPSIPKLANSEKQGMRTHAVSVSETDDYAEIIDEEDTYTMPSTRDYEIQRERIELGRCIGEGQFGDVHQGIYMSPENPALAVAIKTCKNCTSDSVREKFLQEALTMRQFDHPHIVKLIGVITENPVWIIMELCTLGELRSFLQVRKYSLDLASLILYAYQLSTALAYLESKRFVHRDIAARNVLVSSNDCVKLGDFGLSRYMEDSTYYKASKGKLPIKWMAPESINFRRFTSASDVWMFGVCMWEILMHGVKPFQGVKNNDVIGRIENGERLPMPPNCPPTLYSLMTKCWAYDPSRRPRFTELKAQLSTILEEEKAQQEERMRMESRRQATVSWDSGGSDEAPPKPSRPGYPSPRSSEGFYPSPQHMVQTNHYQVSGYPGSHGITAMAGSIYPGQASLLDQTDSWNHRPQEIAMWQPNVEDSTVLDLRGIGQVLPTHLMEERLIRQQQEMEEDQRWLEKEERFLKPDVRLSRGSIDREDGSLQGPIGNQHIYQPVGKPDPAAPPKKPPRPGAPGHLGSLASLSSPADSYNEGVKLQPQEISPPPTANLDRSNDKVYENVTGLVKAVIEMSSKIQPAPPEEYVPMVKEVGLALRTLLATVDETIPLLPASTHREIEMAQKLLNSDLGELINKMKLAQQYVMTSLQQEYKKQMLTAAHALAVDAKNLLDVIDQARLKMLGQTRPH

How did the “Assay 2 FAK H 31284A TRF PXC50” value turn out when `CNC(=O)c1cccc(F)c1Nc1cc(Nc2cc(C)nn2C)ncc1Cl` [Example 75, 2-({5-Chloro-2-[(1,3-dimethyl-1H-pyrazol-5-yl)amino]-4-pyridinyl}amino)-3-fluoro-N-methylbenzamide] was run?
Its value is 8.3.

Same assay, conditions: Flag-His-TEV-FAK1, 10 μM ATP, 30 min pre-incubation; read-out: Assay 2 FAK H 31284A TRF PXC50 (converted)

With `CONC(=O)c1ccccc1Nc1cc(Nc2cc(C)nn2C)ncc1C1CC1` [Example 55, 2-[5-Cyclopropyl-2-(2,5-dimethyl-2H-pyrazol-3-ylamino)-pyridin-4-ylamino]-N-methoxy-benzamide] as the compound, how does the IC50 read?
The IC50 was 10 nM.

For `CONC(=O)c1ccccc1Nc1cc(Nc2c(C)cnn2CC(C)C)ncc1Cl` [Example 51, 2-[(5-Chloro-2-{[4-methyl-1-(2-methylpropyl)-1H-pyrazol-5-yl]amino}-4-pyridinyl)amino]-N-(methyloxy)benzamide], which IC50 is on record?
Its IC50 is 20 nM.

Which IC50 does the source give for `CONC(=O)c1cc(Cl)ccc1Nc1cc(Nc2cc(C)nn2C(C)C)ncc1Cl` [Example 70] here?
The IC50 was 6.31 nM.

For `CNC(=O)c1cc(F)ccc1Nc1cc(Nc2cc(C)nn2C)ncc1Cl` [Example 83, 2-({5-Chloro-2-[(1,3-dimethyl-1H-pyrazol-5-yl)amino]-4-pyridinyl}amino)-5-fluoro-N-methylbenzamide], which IC50 is on record?
The IC50 was 12.6 nM.

With `CCn1nc(CO)cc1Nc1cc(Nc2c(F)cccc2C(=O)NC)c(C(F)(F)F)cn1` [Example 79, 2-{[2-{[1-Ethyl-3-(hydroxymethyl)-1H-pyrazol-5-yl]amino}-5-(trifluoromethyl)-4-pyridinyl]amino}-3-fluoro-N-methylbenzamide] as the compound, how does the IC50 read?
The IC50 was 10 nM.

How did the IC50 turn out when `CCn1nc(C)cc1Nc1cc(Nc2cc(F)ccc2C(=O)NC)c(Cl)cn1` [Example 88, 2-({5-Chloro-2-[(1-ethyl-3-methyl-1H-pyrazol-5-yl)amino]-4-pyridinyl}amino)-4-fluoro-N-methylbenzamide] was run?
Its IC50 is 2.51 nM.

For `CCn1nc(CCO)cc1Nc1cc(Nc2c(F)cccc2C(=O)NC)c(Cl)cn1` [Example 90, 2-[(5-Chloro-2-{[1-ethyl-3-(2-hydroxyethyl)-1H-pyrazol-5-yl]amino}-4-pyridinyl)amino]-3-fluoro-N-methylbenzamide], which IC50 is on record?
Its IC50 is 10 nM.

`CCn1ncc(C)c1Nc1cc(Nc2ccccc2C(=O)NOC)c(Cl)cn1` [Example 50, 2-({5-Chloro-2-[(1-ethyl-4-methyl-1H-pyrazol-5-yl)amino]-4-pyridinyl}amino)-N-(methyloxy)benzamide] was tested. Which IC50 did it give?
The IC50 was 12.6 nM.

`CCn1nc(C)cc1Nc1cc(Nc2ccccc2C(=O)NC)c(C2CC2)cn1` [Example 54, 2-[5-Cyclopropyl-2-(2-ethyl-5-methyl-2H-pyrazol-3-ylamino)-pyridin-4-ylamino]-N-methylbenzamide] was tested. Which IC50 did it give?
The IC50 was 31.6 nM.

`CCn1nc(CCN2CCCC2)cc1Nc1cc(Nc2ccccc2C(=O)NC)c(Cl)cn1` [Example 46, 2-{[5-Chloro-2-({1-ethyl-3-[2-(1-pyrrolidinyl)ethyl]-1H-pyrazol-5-yl}amino)-4-pyridinyl]amino}-N-methylbenzamide] was tested. Which IC50 did it give?
The IC50 was 12.6 nM.

Which IC50 does the source give for `CCONC(=O)c1ccccc1Nc1cc(Nc2cc(C)nn2CC)ncc1Cl` [Example 64, 2-({5-Chloro-2-[(1-ethyl-3-methyl-1H-pyrazol-5-yl)amino]-4-pyridinyl}amino)-N-(ethyloxy)benzamide] here?
The IC50 was 79.4 nM.

Which IC50 does the source give for `CONC(=O)c1ccccc1Nc1cc(Nc2cc(CO)nn2C(C)C)ncc1Cl` [Example 52, 2-[(5-Chloro-2-{[3-(hydroxymethyl)-1-(1-methylethyl)-1H-pyrazol-5-yl]amino}-4-pyridinyl)amino]-N-(methyloxy)benzamide] here?
The IC50 was 6.31 nM.

With `CNC(=O)c1cccc(F)c1Nc1cc(Nc2cc(CCO)nn2C)ncc1Cl` [Example 89, 2-[(5-Chloro-2-{[3-(2-hydroxyethyl)-1-methyl-1H-pyrazol-5-yl]amino}-4-pyridinyl)amino]-3-fluoro-N-methylbenzamide] as the compound, how does the IC50 read?
The IC50 was 10 nM.

For `CCn1nc(CN(C)C)cc1Nc1cc(Nc2c(F)cccc2C(=O)NOC)c(Cl)cn1` [Example 95e, 2-{[5-Chloro-2-({3-[(dimethylamino)methyl]-1-ethyl-1H-pyrazol-5-yl}amino)-4-pyridinyl]amino}-3-fluoro-N-(methyloxy)benzamide], which IC50 is on record?
The IC50 was 158 nM.

With `CCOCc1cc(Nc2cc(Nc3ccccc3C(=O)NC)c(Cl)cn2)n(C(C)C)n1` [Example 61, 2-[(5-Chloro-2-{[3-[(ethyloxy)methyl]-1-(1-methylethyl)-1H-pyrazol-5-yl]amino}-4-pyridinyl)amino]-N-methylbenzamide] as the compound, how does the IC50 read?
The IC50 was 25.1 nM.

With `CONC(=O)c1ccccc1Nc1cc(Nc2cnn(C)c2C)ncc1Cl` [Example 47, 2-({5-Chloro-2-[(1,5-dimethyl-1H-pyrazol-4-yl)amino]-4-pyridinyl}amino)-N-(methyloxy)benzamide] as the compound, how does the IC50 read?
Its IC50 is 2.51 nM.

For `CNC(=O)c1ccccc1Nc1cc(Nc2cc(C)nn2C)ncc1C#N` [Example 65, 2-({5-Cyano-2-[(1,3-dimethyl-1H-pyrazol-5-yl)amino]-4-pyridinyl}amino)-N-methylbenzamide], which IC50 is on record?
Its IC50 is 15.8 nM.

Which IC50 does the source give for `CCn1nc(C)cc1Nc1cc(Nc2c(F)cccc2C(=O)NC)c(Cl)cn1` [Example 74, 2-({5-Chloro-2-[(1-ethyl-3-methyl-1H-pyrazol-5-yl)amino]-4-pyridinyl}amino)-3-fluoro-N-methylbenzamide] here?
Its IC50 is 3.16 nM.

`CCn1nc(COC)cc1Nc1cc(Nc2ccccc2C(=O)NC)c(Cl)cn1` [Example 60, 2-{[5-Chloro-2-({1-ethyl-3-[(methyloxy)methyl]-1H-pyrazol-5-yl}amino)-4-pyridinyl]amino}-N-methylbenzamide] was tested. Which IC50 did it give?
Its IC50 is 12.6 nM.

`CNC(=O)c1cccc(F)c1Nc1cc(Nc2cc(CN(C)C)nn2C)ncc1Cl` [Example 91, 2-{[5-Chloro-2-({3-[(dimethylamino)methyl]-1-methyl-1H-pyrazol-5-yl}amino)-4-pyridinyl]amino}-3-fluoro-N-methylbenzamide] was tested. Which IC50 did it give?
The IC50 was 251 nM.

Which IC50 does the source give for `Cc1cc(Nc2cc(Nc3ccc(F)cc3C(=O)N3CCCN3C)c(Cl)cn2)n(C(C)C)n1` [Example 96b, 5-Chloro-N^4-{4-fluoro-2-[(2-methyl-1-pyrazolidinyl)carbonyl]phenyl}-N^2-[3-methyl-1-(1-methylethyl)-1H-pyrazol-5-yl]-2,4-pyridinediamine] here?
The IC50 was 2000 nM.

With `CNC(=O)c1ccc(F)cc1Nc1cc(Nc2cc(C)nn2C)ncc1Cl` [Example 87, 2-({5-Chloro-2-[(1,3-dimethyl-1H-pyrazol-5-yl)amino]-4-pyridinyl}amino)-4-fluoro-N-methylbenzamide] as the compound, how does the IC50 read?
Its IC50 is 2.51 nM.

How did the IC50 turn out when `CONC(=O)c1cccc(F)c1Nc1cc(Nc2cc(C)nn2C(C)C)ncc1Cl` [Example 72, 2-[(5-Chloro-2-{[3-methyl-1-(1-methylethyl)-1H-pyrazol-5-yl]amino}-4-pyridinyl)amino]-3-fluoro-N-(methyloxy)benzamide] was run?
Its IC50 is 2.51 nM.

How did the IC50 turn out when `CNC(=O)c1ccc(F)cc1Nc1cc(Nc2cc(C)nn2C(C)C)ncc1Cl` [Example 86, 2-[(5-Chloro-2-{[3-methyl-1-(1-methylethyl)-1H-pyrazol-5-yl]amino}-4-pyridinyl)amino]-4-fluoro-N-methylbenzamide] was run?
Its IC50 is 1.58 nM.

With `CCn1nc(CO)cc1Nc1cc(Nc2c(F)cccc2C(=O)NOC)c(Cl)cn1` [Example 95c, 2-[(5-Chloro-2-{[1-ethyl-3-(hydroxymethyl) 1H-pyrazol-5-yl]amino}-4-pyridinyl)amino]-3-fluoro-N-(methyloxy)benzamide] as the compound, how does the IC50 read?
Its IC50 is 12.6 nM.

For `CCn1nc(C)cc1Nc1cc(Nc2ccccc2C(=O)N(C)O)c(Cl)cn1` [Example 63, 2-({5-Chloro-2-[(1-ethyl-3-methyl-1H-pyrazol-5-yl)amino]-4-pyridinyl}amino)-N-hydroxy-N-methylbenzamide], which IC50 is on record?
Its IC50 is 50.1 nM.

With `CONC(=O)c1ccc(F)cc1Nc1cc(Nc2cc(C)nn2C(C)C)ncc1Cl` [Example 73, 2-[(5-Chloro-2-{[3-methyl-1-(1-methylethyl)-1H-pyrazol-5-yl]amino}-4-pyridinyl)amino]-4-fluoro-N-(methyloxy)benzamide] as the compound, how does the IC50 read?
Its IC50 is 1.26 nM.

Which IC50 does the source give for `CNC(=O)c1cc(F)ccc1Nc1cc(Nc2cc(C)nn2C(C)C)ncc1Cl` [Example 85, 2-[(5-Chloro-2-{[3-methyl-1-(1-methylethyl)-1H-pyrazol-5-yl]amino}-4-pyridinyl)amino]-5-fluoro-N-methylbenzamide] here?
The IC50 was 63.1 nM.

`CNC(=O)c1cccc(F)c1Nc1cc(Nc2cc(CO)nn2C)ncc1C(F)(F)F` [Example 80, 3-Fluoro-2-{[2-{[3-(hydroxymethyl)-1-methyl-1H-pyrazol-5-yl]amino}-5-(trifluoromethyl)-4-pyridinyl]amino}-N-methylbenzamide] was tested. Which IC50 did it give?
Its IC50 is 12.6 nM.

With `CONC(=O)c1ccccc1Nc1cc(Nc2c(C)cnn2C(C)C)ncc1Cl` [Example 49, 2-[(5-Chloro-2-{[4-methyl-1-(1-methylethyl)-1H-pyrazol-5-yl]amino}-4-pyridinyl)amino]-N-(methyloxy)benzamide] as the compound, how does the IC50 read?
The IC50 was 63.1 nM.

For `CONC(=O)c1ccc(Cl)cc1Nc1cc(Nc2cc(C)nn2C(C)C)ncc1Cl` [Example 69, 4-Chloro-2-[(5-chloro-2-{[3-methyl-1-(1-methylethyl)-1H-pyrazol-5-yl]amino}-4-pyridinyl)amino]-N-(methyloxy)benzamide], which IC50 is on record?
The IC50 was 2.51 nM.

How did the IC50 turn out when `CCn1nc(C)cc1Nc1cc(Nc2c(F)cccc2C(=O)NC)c(C(F)(F)F)cn1` [Example 77, 2-{[2-[(1-Ethyl-3-methyl-1H-pyrazol-5-yl)amino]-5-(trifluoromethyl)-4-pyridinyl]amino}-3-fluoro-N-methylbenzamide] was run?
Its IC50 is 1 nM.

Which IC50 does the source give for `CONC(=O)c1cccc(F)c1Nc1cc(Nc2cc(CO)nn2C)ncc1Cl` [Example 95d, 2-[(5-Chloro-2-{[3-(hydroxymethyl)-1-methyl-1H-pyrazol-5-yl]amino}-4-pyridinyl)amino]-3-fluoro-N-(methyloxy)benzamide] here?
The IC50 was 20 nM.
